The values below come from US9096556B2, “Amorphous ritonavir co-precipitated” (HETERO RESEARCH FOUNDATION, priority 2011, dated 2015).

This data set in a line: Solid-state stability of the amorphous form. It counts as physicochemical.

With `CC(C)c1nc(CN(C)C(=O)N[C@H](C(=O)N[C@@H](Cc2ccccc2)C[C@H](O)[C@H](Cc2ccccc2)NC(=O)OCc2cncs2)C(C)C)cs1` [(5S,8S,10S,11S)-10-Hydroxy-2-methyl-5-(1-methylethyl)-1-[2-(1-methylethyl)-4-thiazolyl]-3,6-dioxo-8,11-bis(phenylmethyl)-2,4,7,12-tetraazatridecan-13-oic acid 5-thiazolylmethyl ester], the “stability of the amorphous form” value is “unstable” and the “time until the amorphous material changed into molten state” value is not above 30 min.
